Test results: patent US4837149A, “Novel saframycin A derivatives and process for producing the same” (priority 1984, dated 1989)
In brackets after ≈: the same amount, converted by molar mass. Read-outs that look alike come from different tables or passages of the source.

Key:
[1] = test system: Staphylococcus aureus 209 P; assay: Antibacterial spectra in vitro, MIC on agar plates; assay type: cell-based; conditions: IFM No. 2014, nutrient agar, 37° C., 24 hours
[2] = test system: Staphylococcus aureus Smith; assay: Antibacterial spectra in vitro, MIC on agar plates; assay type: cell-based; conditions: IFM No. 2018, nutrient agar, 37° C., 24 hours
Staphylococcus albus = assay: Antibacterial spectra in vitro, MIC on agar plates; assay type: cell-based; conditions: IFM No. 2013, nutrient agar, 37° C., 24 hours
Staphylococcus citreus = assay: Antibacterial spectra in vitro, MIC on agar plates; assay type: cell-based; conditions: IFM No. 2025, nutrient agar, 37° C., 24 hours
Sarcina lutea = assay: Antibacterial spectra in vitro, MIC on agar plates; assay type: cell-based; conditions: Micrococcus luteus; IFM No. 2066; nutrient agar; 37° C., 24 hours
[3] = test system: Bacillus subtilis PCI 219; assay: Antibacterial spectra in vitro, MIC on agar plates; assay type: cell-based; conditions: PCI219, IFM No. 2060, nutrient agar, 37° C., 24 hours
Bacillus cereus = assay: Antibacterial spectra in vitro, MIC on agar plates; assay type: cell-based; conditions: IFM No. 2058, nutrient agar, 37° C., 24 hours
Escherichia coli F1 = assay: Antibacterial spectra in vitro, MIC on agar plates; assay type: cell-based; conditions: IFM No. 3002, nutrient agar, 37° C., 24 hours
Salmonella typhimurium = assay: Antibacterial spectra in vitro, MIC on agar plates; assay type: cell-based; conditions: Salmonella enterica, IFM No. 3023, nutrient agar, 37° C., 24 hours
Shigella dysenteria = assay: Antibacterial spectra in vitro, MIC on agar plates; assay type: cell-based; conditions: IFM No. 3024, nutrient agar, 37° C., 24 hours
Klebsiella pneumoniae = assay: Antibacterial spectra in vitro, MIC on agar plates; assay type: cell-based; conditions: IFM No. 3008, nutrient agar, 37° C., 24 hours
Serratia marcescens = assay: Antibacterial spectra in vitro, MIC on agar plates; assay type: cell-based; conditions: IFM No. 3029, nutrient agar, 37° C., 24 hours
[4] = test system: Corynebacterium diphtheria; assay: Antibacterial spectra in vitro, MIC on agar plates; assay type: cell-based; conditions: IFM No. 2056, glucose (0.5%) agar, 37° C., 24 hours
Method: (§1) With respect to the antimicrobial activities of saframycins Y3 and Yd-1, the antibacterial spectra in vitro, as expressed by their minimum inhibitory concentrations (MIC), are shown in Table 2:
(§2) Medium: A=nutrient agar, B=glucose (0.5%) agar, C=Sabouraud's glucose (2%) agar.
(§3) All MIC-values shown in Table 2 are obtained from cultures on agar plates containing varying amounts of the antibiotic tested at temperatures of 37° C. after an incubation period of 24 hours (bacteria), 48 hours (fungi except candida albicans, 37° C., 48 hours, Trichophyton mentagrophytes.

Mycobacterium sp. 607 = assay: Antibacterial spectra in vitro, MIC on agar plates; assay type: cell-based; conditions: IFM No. 2051, glucose (0.5%) agar, 37° C., 24 hours
Method: as §1, §2, §3

Pseudomonas aeruginosa = assay: Antibacterial spectra in vitro, MIC on agar plates; assay type: cell-based; conditions: IFM No. 3011, nutrient agar, 37° C., 24 hours
Method: as §1, §2, §3

[5] = test system: Streptococcus pyogenes Cook; assay: Antibacterial spectra in vitro, MIC on agar plates; assay type: cell-based; conditions: IFM No. 2003, glucose (0.5%) agar, 37° C., 24 hours
Method: as §1, §2, §3

Streptococcus faecalis = assay: Antibacterial spectra in vitro, MIC on agar plates; assay type: cell-based; conditions: Enterococcus faecalis; IFM No. 2001; glucose (0.5%) agar; 37° C., 24 hours
[6] = test system: Streptococcus pyogenes 090 R; assay: Antibacterial spectra in vitro, MIC on agar plates; assay type: cell-based
Streptococcus salivarius = assay: Antibacterial spectra in vitro, MIC on agar plates; assay type: cell-based; conditions: IFM No. 2010, glucose (0.5%) agar, 37° C., 24 hours
Corynebacterium xeriosis = assay: Antibacterial spectra in vitro, MIC on agar plates; assay type: cell-based; conditions: IFM No. 2057, glucose (0.5%) agar, 37° C., 24 hours
Mycobacterium phlei = assay: Antibacterial spectra in vitro, MIC on agar plates; assay type: cell-based; conditions: Mycolicibacterium phlei; IFM No. 2052; glucose (0.5%) agar; 37° C., 24 hours
Mycobacterium avium = assay: Antibacterial spectra in vitro, MIC on agar plates; assay type: cell-based; conditions: IFM No. 2054, glucose (0.5%) agar, 37° C., 24 hours
Nocardia asteroides = assay: Antibacterial spectra in vitro, MIC on agar plates; assay type: cell-based; conditions: IFM No. 0006, glucose (0.5%) agar, 37° C., 24 hours
Brucella abortus = assay: microbe, parasite or virus in culture; assay type: cell-based; conditions: 24 h
Candida albicans 7N = assay: Antimicrobial (fungi) MIC on agar plates; assay type: cell-based; conditions: IFM No. 40009, Sabouraud's glucose (2%) agar
Saccharomyces cerevisiae = assay: Antimicrobial (fungi) MIC on agar plates; assay type: cell-based; conditions: IFM No. 40025, Sabouraud's glucose (2%) agar, 48 hours
Rhodotorula glutinus = assay: Antimicrobial (fungi) MIC on agar plates; assay type: cell-based; conditions: IFM No. 40057, Sabouraud's glucose (2%) agar, 48 hours
Aspergillus niger = assay: Antimicrobial (fungi) MIC on agar plates; assay type: cell-based; conditions: IFM No. 40606, Sabouraud's glucose (2%) agar, 48 hours
Aspergillus oryzae = assay: Antimicrobial (fungi) MIC on agar plates; assay type: cell-based; conditions: IFM No. 40601, Sabouraud's glucose (2%) agar, 48 hours
Penicillium expansum = assay: Antimicrobial (fungi) MIC on agar plates; assay type: cell-based; conditions: IFM No. 40618, Sabouraud's glucose (2%) agar, 48 hours
[7] = test system: Trichophyton mentagrophytes; assay: Antimicrobial (fungi) MIC on agar plates; assay type: cell-based; conditions: IFM No. 40134, Sabouraud's glucose (2%) agar
mouse leukaemia L 1210 = assay: Cytotoxic effect in cell cultures of mouse leukaemia L 1210; assay type: cell-based; conditions: L1210, read-out: ED50 (cytotoxic effect)
[8] = test system: Ehrlich ascitic tumor cells; assay: Survival of ICR mice inoculated with Ehrlich ascitic tumor cells; assay type: in vivo; conditions: for mice survived: 20 micrograms/mouse/day intraperitoneally for 7 days, from 24 hours after inoculation, 10 mice per group
Method: In another test, ICR mice (10 mice per group) were inoculated with Ehrlich ascitic tumor cells. Twenty-four hours after the inoculation the dose of 20 micrograms/mouse/day of saframycin Y3 or 20 micrograms/mouse/day of saframycin Yd-1 was administered intraperitoneally. The administration was continued for 7 days. […] When 5 micrograms/mouse/day of saframycin Y3 or 4 micrograms/mouse/day of Yd-1 were administered, 60-70% of the mice survived for 20 days or more.

mouse leukemia L 1210 = assay: Effect against mouse leukemia L 1210 in BDF1 mice (US National Cancer Research Institute procedure); assay type: in vivo; conditions: for survival effect compared with critical level of effectiveness prescribed by the research institute: 10 micrograms/mouse/day intraperitoneally for one week; for survival effect [T/C×100]: 10 micrograms/mouse/day intraperitoneally for one week from 24 hours after transplantation
Description: In another test, the effect of saframycins Y3 and Yd-1 against mouse leukemia L 1210 was examined by using BDF1 mice according to the procedure as established by the US National Cancer Research Institute.

Lewis lung cancer [9] = assay: Effect against metastasis of Lewis lung cancer (foot pad inoculation, leg amputation); assay type: in vivo, BDF1 mice; conditions: 40 micrograms/mouse/day for 10 days i.p.; seven days after last administration; control: abundant metastasis
Method: In another test, the effect of saframycin Yd-1 against metastasis of Lewis lung cancer was determined in the following manner:
The foot pads of the left hind legs of BDF1 mice having a body weight of 20 g were subcutaneously inoculated with 1.5×10^5 Lewis lung cancer cells. After seven days the legs were amputated.
(§4) A physiological sodium chloride solution was administered intraperitoneally to the control group while saframycin Yd-1 was given at a dose of 40 micrograms/mouse/day for 10 days i.p. to the group to be treated. Seven days after the last administration, the mice were sacrificed and the spread of metastasis in the lungs was compared. […] In anther experiment, the effect against Lewis lung cancer was evaluated according to the guidelines of the USA Cancer Institute (R. L. Geran et al. Cancer Chemotherapy Reports, Part 3, Vol. 3, No. 2 (1972)).

Lewis lung cancer [10] = assay: Effect against Lewis lung cancer according to guidelines of the USA Cancer Institute; assay type: in vivo; conditions: 20 micrograms/mouse/day intraperitoneally for 10 days
Method: as §4

| Compound | MIC [1] [µg/mL] | MIC [2] [µg/mL] | MIC (Staphylococcus albus) [µg/mL] | MIC (Staphylococcus citreus) [µg/mL] | MIC (Sarcina lutea) [µg/mL] | MIC [3] [µg/mL] | MIC (Bacillus cereus) [µg/mL] | MIC (Escherichia coli F1) [µg/mL] | MIC (Salmonella typhimurium) [µg/mL] | MIC (Shigella dysenteria) [µg/mL] | MIC (Klebsiella pneumoniae) [µg/mL] | MIC (Serratia marcescens) [µg/mL] | MIC [4] [µg/mL] | MIC (Mycobacterium sp. 607) [µg/mL] | MIC (Pseudomonas aeruginosa) [µg/mL] | MIC [5] [µg/mL] | MIC (Streptococcus faecalis) [µg/mL] | MIC (Streptococcus salivarius) [µg/mL] | MIC (Corynebacterium xeriosis) [µg/mL] | MIC (Mycobacterium phlei) [µg/mL] | further results |
| --- | --- | --- | --- | --- | --- | --- | --- | --- | --- | --- | --- | --- | --- | --- | --- | --- | --- | --- | --- | --- | --- |
| COC1=C(C)C(=O)C2=C(C1=O)C1C3CC4=C(C(=O)C(OC)=C(C)C4=O)C(CNC(=O)C(C)N)N3C(C#N)C(C2)N1C (stereo not drawn) [Saframycin Y3] | 1 (≈ 1.77 µM) | 0.1 (≈ 0.177 µM) | 1 (≈ 1.77 µM) | 0.1 (≈ 0.177 µM) | 1 (≈ 1.77 µM) | 10 (≈ 17.7 µM) | 50 (≈ 88.7 µM) | 50 (≈ 88.7 µM) | 50 (≈ 88.7 µM) | 10 (≈ 17.7 µM) | 10 (≈ 17.7 µM) | 50 (≈ 88.7 µM) | < 0.001 | > 100 | > 100 | < 0.001 | 10 (≈ 17.7 µM) | 50 (≈ 88.7 µM) | 1 (≈ 1.77 µM) | 50 (≈ 88.7 µM) | MIC ([6]; IFM No. 2006, glucose (0.5%) agar, 37° C., 24 hours, read-out: MIC): 0.1 µg/mL (≈ 0.177 µM); MIC (Mycobacterium avium): 50 µg/mL (≈ 88.7 µM); MIC (Nocardia asteroides): 50 µg/mL (≈ 88.7 µM); MIC (Brucella abortus): 1 µg/mL (≈ 1.77 µM); MIC (Candida albicans 7N): > 100 µg/mL; MIC (Saccharomyces cerevisiae): > 100 µg/mL; MIC (Rhodotorula glutinus): > 100 µg/mL; MIC (Aspergillus niger): > 100 µg/mL; MIC (Aspergillus oryzae): > 100 µg/mL; MIC (Penicillium expansum): > 100 µg/mL; MIC [7]: > 100 µg/mL; IC50 (mouse leukaemia L 1210): 0.0016 µg/mL (≈ 0.00284 µM); mice survived for 20 days or more ([8]; 5 micrograms/mouse/day): 60-70%; mice survived [8]: all mice survived; survival effect compared with critical level of effectiveness prescribed by the research institute (mouse leukemia L 1210): exceed the critical level of effectiveness; survival effect [T/C×100] (mouse leukemia L 1210): 130% |
| CCC(N)C(=O)NCC1C2=C(CC3C4C5=C(CC(C(C#N)N13)N4C)C(=O)C(C)=C(OC)C5=O)C(=O)C(C)=C(OC)C2=O (stereo not drawn) [Saframycin Yd-1] | 1 (≈ 1.73 µM) | 1 (≈ 1.73 µM) | 10 (≈ 17.3 µM) | 0.1 (≈ 0.173 µM) | 1 (≈ 1.73 µM) | 1 (≈ 1.73 µM) | 50 (≈ 86.6 µM) | 50 (≈ 86.6 µM) | 50 (≈ 86.6 µM) | 10 (≈ 17.3 µM) | 10 (≈ 17.3 µM) | 50 (≈ 86.6 µM) | < 0.001 | > 100 | > 100 | < 0.001 | 10 (≈ 17.3 µM) | 50 (≈ 86.6 µM) | 1 (≈ 1.73 µM) | 50 (≈ 86.6 µM) | MIC ([6]; 24 h): 0.01 µg/mL (≈ 0.0173 µM); MIC (Mycobacterium avium): 50 µg/mL (≈ 86.6 µM); MIC (Nocardia asteroides): 1 µg/mL (≈ 1.73 µM); MIC (Brucella abortus): 1 µg/mL (≈ 1.73 µM); MIC (Candida albicans 7N): > 100 µg/mL; MIC (Saccharomyces cerevisiae): > 100 µg/mL; MIC (Rhodotorula glutinus): > 100 µg/mL; MIC (Aspergillus niger): > 100 µg/mL; MIC (Aspergillus oryzae): > 100 µg/mL; MIC (Penicillium expansum): > 100 µg/mL; MIC [7]: > 100 µg/mL; IC50 (mouse leukaemia L 1210): 0.002 µg/mL (≈ 0.00346 µM); mice survived for 20 days or more ([8]; 4 micrograms/mouse/day): 60-70%; mice survived [8]: all mice survived; survival effect compared with critical level of effectiveness prescribed by the research institute (mouse leukemia L 1210): exceed the critical level of effectiveness; survival effect [T/C×100] (mouse leukemia L 1210): 140%; spread of metastasis in the lungs (Lewis lung cancer [9]): metastasis was scarcely observed; T/C×100 (Lewis lung cancer [10]): ≥ 140%; preventing effect against cancer metastasis as compared to saframycin A (Lewis lung cancer [10]): higher preventing effect |
